The values that follow come from US11780826B2 (Amgen Inc., priority 2017, dated 2023).

The experiment has as its system Bovine cardiac myofibrils. The experiment can be described thus: In vitro model of dose-dependent myofibril ATPase modulation (AC1.4, pyruvate kinase/lactate dehydrogenase-coupled ATPase assay at pCa25). The class given is biochemical. The settings on record: concentration at which ATPase activity was 1.4-fold higher than the bottom of the dose curve, mean of a minimum of two independent tests. A digest of the protocol: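 Bovine cardiac myofibrils, detergent-treated; 0.25-1.0 mg/ml. Buffer: K-PIPES 12 mM, MgCl2 2 mM, DTT 1 mM, BSA 0.1 mg/ml, pH 6.80, 22° C; Ca2+ set by EGTA/CaCl2. ATP 1 mM, NADH/PEP-coupled, A340. 4-parameter fit; n≥2.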
`O=C(NCc1ccc(C(F)(F)F)cc1)[C@H]1CCCN1C(=O)[C@H]1CCCN(S(=O)(=O)N2CCC2c2ccc(Cl)cc2)C1` (stereo partly drawn) [Example 697, (2R)-1-((3S)-1-((2-(4-chlorophenyl)azetidin-1-yl)sulfonyl)piperidine-3-carbonyl)-N-(4-(trifluoromethyl)benzyl)pyrrolidine-2-carboxamide]: the AC1.4 was found to be 5.5445 µM.
`C[C@H](C(=O)N[C@H](C)c1ccc(Cl)cc1F)N(C)C(=O)[C@@H]1CN(S(=O)(=O)N2CC(C#N)C2)CCO1` [Example 419, (2S)-N-((2R)-1-(((1R)-1-(4-chloro-2-fluorophenyl)ethyl)amino)-l-oxo-2-propanyl)-4-((3-cyano-1-azetidinyl)sulfonyl)-N-methyl-2-morpholinecarboxamide] registered an AC1.4 of 1.542 µM.
`CS(=O)(=O)c1cc(C(=O)N2CCC[C@@H]2C(=O)N[C@@H](c2ccc(C(F)(F)F)cc2F)C2CC2)ccn1` [Example 675, N-((R)-cyclopropyl(2-fluoro-4-(trifluoromethyl)phenyl)methyl)-1-((2-(methylsulfonyl)-4-pyridinyl)carbonyl)-D-prolinamide] yielded an AC1.4 of 4.9395 µM.
The figure for `N#CC1CN(S(=O)(=O)c2cccc(C(=O)N3C[C@@H](O)C[C@@H]3C(=O)NCc3ccc(C(F)(F)F)cc3)c2)C1` [Example 251, (4S)-1-((3-((3-cyano-1-azetidinyl)sulfonyl)phenyl)carbonyl)-4-hydroxy-N-(4-(trifluoromethyl)benzyl)-D-prolinamide] is 0.6055 µM.
The molecule `C[C@@H](NC(=O)[C@H]1CCCN1C(=O)[C@H]1CCCN(S(=O)(=O)N2CC(C#N)C2)C1)c1ccc(C(F)(F)F)cc1` [Example 84, 1-(((3S)-1-((3-cyano-1-azetidinyl)sulfonyl)-3-piperidinyl)carbonyl)-N-((1R)-1-(4-(trifluoromethyl)phenyl)ethyl)-D-prolinamide] returned an AC1.4 of 0.1147 µM.
`CN(Cc1ccc(Cl)cc1)C(=O)C1CCCN1C(=O)c1cccc(S(=O)(=O)N2CC(C#N)C2)c1` (centres unmarked) [Example 162, N-(4-chlorobenzyl)-1-((3-((3-cyano-1-azetidinyl)sulfonyl)phenyl)carbonyl)-N-methyl-prolinamide]: the AC1.4 came to 0.2767 µM.
Turning to `N#CC1CN(S(=O)(=O)N2CC3CC2[C@@H](C(=O)N2CCC[C@@H]2C(=O)NCc2ccc(C(F)(F)F)cc2F)C3)C1` (stereo partly drawn) [Example 189, 1-((2-((3-cyano-1-azetidinyl)sulfonyl)-2-azabicyclo[2.2.1]hept-6-yl)carbonyl)-N-(2-fluoro-4-(trifluoromethyl)benzyl)-D-prolinamide], the AC1.4 is 0.3524 µM.
`O=C(NCc1ccc(C(F)(F)F)cc1)[C@H]1CCCN1C(=O)[C@H]1CCCN(S(=O)(=O)N2CC(c3cccc(Cl)c3)C2)C1` [Example 398, 1-(((3S)-1-((3-(3-chlorophenyl)-1-azetidinyl)sulfonyl)-3-piperidinyl)carbonyl)-N-(4-(trifluoromethyl)benzyl)-D-prolinamide] had an AC1.4 of 1.4045 µM.
`CS(=O)(=O)N1CCN[C@H](C(=O)N2[C@@H](C(=O)N[C@@H](c3cc(F)c(Cl)cc3F)C3CC3)C[C@H]3C[C@H]32)C1` [Example 724, (1R,3R,5R)-N-((R)-(4-chloro-2,5-difluorophenyl)(cyclopropyl)methyl)-2-(((2S)-4-(methylsulfonyl)-2-piperazinyl)carbonyl)-2-azabicyclo[3.1.0]hexane-3-carboxamide] gave an AC1.4 of 6.475 µM.
As for `O=C(NCc1ccc(C(F)(F)F)cc1)[C@H]1CCCN1C(=O)[C@H]1CCCN(S(=O)(=O)N2CC(n3cccc3)C2)C1` [Example 367, 1-(((3S)-1-((3-(1H-pyrrol-1-yl)-1-azetidinyl)sulfonyl)-3-piperidinyl)carbonyl)-N-(4-(trifluoromethyl)benzyl)-D-prolinamide], the figure is 1.1962 µM; as for `CS(=O)(=O)c1cccc(C(=O)N2[C@@H](C(=O)N[C@@H](c3ccc(Cl)cc3F)C3CC3)C[C@H]3C[C@H]32)c1` [Example 344, (1R,3R,5R)-N-((R)-(4-chloro-2-fluorophenyl)(cyclopropyl)methyl)-2-(3-(methylsulfonyl)benzoyl)-2-azabicyclo[3.1.0]hexane-3-carboxamide], 0.9555 µM.
The molecule `N#CC1CN(S(=O)(=O)N2CCC[C@H](C(=O)N3CC(F)(F)C[C@@H]3C(=O)NCc3ccc(C(F)(F)F)cc3)C2)C1` [Example 25, 1-(((3S)-1-((3-cyano-1-azetidinyl)sulfonyl)-3-piperidinyl)carbonyl)-4,4-difluoro-N-(4-(trifluoromethyl)benzyl)-D-prolinamide] gave an AC1.4 of 0.0289 µM.
As for `CS(=O)(=O)c1cccc(C(=O)N2C[C@@H]3C[C@@H]3[C@@H]2C(=O)N[C@@H](c2ccc(C(F)(F)F)cc2F)C2CC2)c1` [Example 484, (1S,2R,5R)-N-((R)-cyclopropyl(2-fluoro-4-(trifluoromethyl)phenyl)methyl)-3-(3-(methylsulfonyl)benzoyl)-3-azabicyclo[3.1.0]hexane-2-carboxamide], the AC1.4 stood at 2.014 µM.
As for `CCS(=O)(=O)c1cccc(C(=O)N2[C@@H](C(=O)N[C@@H](c3ccc(Cl)cc3)C3COC3)C[C@H]3C[C@H]32)c1` [Example 403, (1R,3R,5R)-N-((R)-(4-chlorophenyl)(3-oxetanyl)methyl)-2-(3-(ethylsulfonyl)benzoyl)-2-azabicyclo[3.1.0]hexane-3-carboxamide], the figure is 1.4025 µM.
The molecule `NS(=O)(=O)c1cccc(C(=O)N2CCCC[C@@H]2C(=O)N[C@@H](c2ccc(C(F)(F)F)cc2F)C2CC2)c1` [Example 359, (2R)-N-((R)-cyclopropyl(2-fluoro-4-(trifluoromethyl)phenyl)methyl)-1-(3-sulfamoylbenzoyl)-2-piperidinecarboxamide] came in with an AC1.4 of 1.1055 µM.
Molecule `C[C@@H](NC(=O)[C@H]1CCCN1C(=O)c1cccc(S(=O)(=O)N2CC3(CC3)C2)c1)c1ccc(Cl)cc1` [Example 595, 1-((3-(5-azaspiro[2.3]hex-5-ylsulfonyl)phenyl)carbonyl)-N-((1R)-1-(4-chlorophenyl)ethyl)-D-prolinamide] yielded an AC1.4 of 3.5165 µM.
`Cc1ccc([C@@H](C)NC(=O)[C@H]2CCCN2C(=O)c2cccc(S(=O)(=O)N3CC(C#N)C3)c2)c(F)c1` [Example 46, 1-((3-((3-cyano-1-azetidinyl)sulfonyl)phenyl)carbonyl)-N-((1R)-1-(2-fluoro-4-methylphenyl)ethyl)-D-prolinamide] yielded an AC1.4 of 0.0456 µM.
The figure for `O=C(N[C@@H](c1ccc(C(F)(F)F)cc1F)C1COC1)[C@H]1C[C@H]2C[C@H]2N1C(=O)c1ccccc1NC(=O)C(F)(F)F` [Example 351, (1R,3R,5R)-N-((R)-(2-fluoro-4-(trifluoromethyl)phenyl)(3-oxetanyl)methyl)-2-(2-(2,2,2-trifluoroacetamido)benzoyl)-2-azabicyclo[3.1.0]hexane-3-carboxamide] is 1.0354 µM; for `CS(=O)(=O)c1cccc(C(=O)N2C[C@H](O)C[C@@H]2C(=O)N[C@@H](c2ccc(C(F)(F)F)cc2F)C2CC2)c1` [Example 506, (4R)-N-((R)-cyclopropyl(2-fluoro-4-(trifluoromethyl)phenyl)methyl)-4-hydroxy-1-(3-(methylsulfonyl)benzoyl)-D-prolinamide] it is 2.23 µM; for `N#CC1CN(S(=O)(=O)N2CCC[C@H](C(=O)N3CCC[C@@H]3C(=O)N[C@@H](c3cc(F)c(C(F)(F)F)cc3F)C3CC3)C2)C1` [Example 35, 1-(((3S)-1-((3-cyano-1-azetidinyl)sulfonyl)-3-piperidinyl)carbonyl)-N-((R)-cyclopropyl(2,5-difluoro-4-(trifluoromethyl)phenyl)methyl)-D-prolinamide] it is 0.0372 µM.
`CS(=O)(=O)c1ccc(NC2CC2)c(C(=O)N2CCC[C@@H]2C(=O)N[C@@H](c2ccc(C(F)(F)F)cc2F)C2CC2)c1` [Example 26, 1-(2-(cyclopropylamino)-5-(methylsulfonyl)benzoyl)-N-((R)-cyclopropyl(2-fluoro-4-(trifluoromethyl)phenyl)methyl)-D-prolinamide]: the AC1.4 stood at 0.0296 µM.
`CS(=O)(=O)c1ccnc(C(=O)N2CCC[C@@H]2C(=O)N[C@@H](c2cc(F)c(Cl)cc2F)C2CC2)c1` [Example 222, N-((R)-(4-chloro-2,5-difluorophenyl)(cyclopropyl)methyl)-1-((4-(methylsulfonyl)-2-pyridinyl)carbonyl)-D-prolinamide] came in with an AC1.4 of 0.4825 µM.
`COc1ccc(CNC(=O)[C@H]2CCCN2C(=O)[C@H]2CCCN(S(=O)(=O)N3CC(C#N)C3)C2)c(F)c1` [Example 557, 1-(((3S)-1-((3-cyano-1-azetidinyl)sulfonyl)-3-piperidinyl)carbonyl)-N-(2-fluoro-4-methoxybenzyl)-D-prolinamide]: the AC1.4 came out at 2.9265 µM.
Turning to `N#CC1CN(S(=O)(=O)N2CCC[C@H](C(=O)N3CCC[C@@H]3C(=O)NCc3cc(Cl)cc(Cl)c3)C2)C1` [Example 390, 1-(((3S)-1-((3-cyano-1-azetidinyl)sulfonyl)-3-piperidinyl)carbonyl)-N-(3,5-dichlorobenzyl)-D-prolinamide], the AC1.4 turned out to be 1.3495 µM.
Regarding `N#C[C@H]1C[C@@H](S(=O)(=O)N2CCC[C@H](C(=O)N3CCC[C@@H]3C(=O)NCc3ccc(C(F)(F)F)cc3)C2)C1` [Example 59, 1-(((3S)-1-((cis-3-cyanocyclobutyl)sulfonyl)-3-piperidinyl)carbonyl)-N-(4-(trifluoromethyl)benzyl)-D-prolinamide], the AC1.4 came out at 0.06495 µM.
With `Cc1cc(CNC(=O)[C@H]2CCCN2C(=O)[C@H]2CCCN(S(=O)(=O)N3CC(C#N)C3)C2)ccc1F` [Example 439, 1-(((3S)-1-((3-cyano-1-azetidinyl)sulfonyl)-3-piperidinyl)carbonyl)-N-(4-fluoro-3-methylbenzyl)-D-prolinamide], the AC1.4 came to 1.7125 µM.
